Source: patent publication US20020072127A1, “Assay of chemical binding” (priority 2000, published 2002)

Test: Micro-cantilever deflection on ligand-receptor binding (biotin-coated micro-cantilever immersed in water in small vessel)
Excerpt: Referring to FIG. 1, a micro-cantilever 10 is fixed at one end to a block 12. The micro-cantilever 10 is generally V-shaped in plan, comprising two converging strips 13,14, which are integral with a transverse cross strip 15. It projects 0.2 mm from the block 12, the strips 13 and 14 each being 24 microns wide and the entire micro-cantilever 10 is of silicon nitride of thickness 0.6 microns. The top surface of the micro-cantilever 10 is coated with a 5 nm layer of chromium followed by a 13 nm layer of gold, to improve its optical reflectivity. The gold on one strip 13 is then coated with octadecanethiol, which forms a self-assembled, highly ordered monolayer on gold, and biotin is then bonded to this monolayer. Biotin acts as a selective receptor for avidin.
Referring now to FIG. 2 any deflection or twisting of the micro-cantilever 10 is detected optically, by focusing a light beam from a laser diode 16 onto the cross strip 15, and detecting the reflection with a quadrant photodiode 18. The light intensities detected by the four segments of the photodiodo 19 may be used to determine the deflection of the cross strip 15. If the micro-cantilever 10 is exposed to a solution of avidin, which binds to the biotin, this changes the surface stress of the strip 13, causing the micro-cantilever 10 to twist, so changing the inclination of the cross strip 15.
The time at which the avidin is injected is indicated by the arrow A. Before this time the deflection is substantially constant. The gradual change in deflection over a period of about five minutes, the deflection then reaching a new, steady value differing by h from its initial value. The bending is caused by the surface stress change resulting from the reaction; the change in surface stress is, at least approximately, equal to the change of surface energy, which can be related to the concentration c or the ligand and the equilibrium constant K of the binding reaction onto the surface (i.e. ka/kd, where ka is the adsorption coefficient and kd is the desorption coefficient).

| Substance | binding strength to biotin relative to immunoglobulin G (FIG. 5, avidin displaces bound immunoglobulin G) | further deflection of the micro-cantilever (FIG. 5, avidin injected (arrow Q) after IgG had bound to biotin, arbitrary units) | deflection of the micro-cantilever resulting from injection (FIG. 5, IgG injected first (arrow P), arbitrary units, steady value after several minutes) | deflection resulting from the initial injection (FIG. 6, concentration in vessel 0.047 μM, after about 10 minutes, arbitrary units) | deflection resulting from the second injection (FIG. 6, concentration raised to 0.068 μM, after a further 10 minutes, arbitrary units) |
| --- | --- | --- | --- | --- | --- |
| avidin | binds to biotin more strongly | about 200 units |  |  |  |
| immunoglobulin G |  |  | about 200 units | about 235 units | about 290 units |
